The source of these data is a melting point compilation (Tetko et al.; mined from patent text by program, amines drawn as free bases though some values may be those of a salt).

Consider `CCOC(=O)c1c(CCl)nc2sc(C)c(C)c2c1-c1ccc(Cl)cc1`, for which the melting point lay in the range of 132 to 144 °C.

As to `Cn1c(C(F)(F)F)cc(=O)n(-c2cc(OCc3cccc(F)c3)c(Cl)cc2F)c1=O`, the melting point was in the range of 135 to 137 °C. For the compound `COC(=O)C(Cc1ccc(O)cc1)OC` (stereo unspecified), the melting point is 61 to 63 °C. As to `CC12CCC(CC1=C=C1C=CC(Nc3nc(Cl)nc(NC4=CCC(=C=C5CC6CCC5(C)C6(C)C)C=C4)n3)=CC1)C2(C)C`, the melting point stood at 221 °C. `Cc1ccc2c3c(ccc2n1)OC[C@H](CNCC1CCc2sc4ccc(F)cc4c2C1)O3` (stereo partly specified) showed a melting point of 115 to 118 °C. Turning to `CCCCNc1c(C(=O)OCC)cnc2nn(C)cc12`, the melting point was in the range of 95 to 97 °C. In turn, `O=C1NC(=O)c2c1c(-c1ccccc1Cl)cc1c2c(Br)cn1CCCO` yielded a melting point of 121 to 123 °C. `CCOC(=O)c1c(Cl)c2cc(C)ccc2n(Cc2ccccc2)c1=O` registered a melting point of 103 °C. `O=C(NCCNCC(O)COc1ccc(OCCOCC2CC2)cc1)N1CCOCC1` (stereo unspecified) registered a melting point of 80 to 81 °C. `O=C1Cc2cccc(C(=O)c3ccc(F)cc3)c2N1`: the melting point lay within 185 to 187 °C. `Cc1nc2scc(C)n2c(=O)c1CCN1CCC(c2noc3cc(F)ccc23)CC1` showed a melting point of 231 °C. In the case of `Cc1cccc(Nn2cnc(C)c2C)c1`, the melting point came out at 144 °C.

Regarding `O=C(O)c1ccc2ccc(S(=O)(=O)N(Cc3ccccc3)Cc3ccccc3)cc2c1`, the melting point fell in the range of 189 to 190 °C. In turn, `CCN(CC)CCSc1nc2ccccc2c(=O)n1-c1ccccc1` yielded a melting point of 84.8 to 86.8 °C. `Cc1ccc(C)c(-c2cccc(C=CC(=O)O)c2)c1` showed a melting point of 156 to 157 °C. In turn, `Cc1nc2cc3c(cc2c(=O)n1COC(=O)C(C)(C)C)C(=O)CC3` came in with a melting point of 203 to 205 °C. Compound `COC(=O)Cc1nc(-c2ccc3ccccc3c2)oc1C` had a melting point of 86 to 87 °C. For the compound `COc1c(N2CCC(N)C(C)C2)c(F)cc2c(=O)c(C(=O)O)cn(C3CC3)c12` (stereo unspecified), the melting point fell in the range of 240 to 242 °C. Compound `CCc1nc2c(N)nc3cc(CCCNC(C)=O)ccc3c2n1CC1CCOCC1` had a melting point of 209 to 211 °C. The compound `COP(=O)(NC1C(=O)N2C(C(=O)OCc3ccccc3)=C(C=CN(C)C)CSC12)OC` (stereo unspecified) showed a melting point of 126 to 128 °C. With `Cc1noc(NS(=O)(=O)c2ccccc2-c2ccc(-c3ncco3)cc2C(O)c2ncc(-c3ccccc3)o2)c1C` (stereo unspecified), the melting point fell in the range of 125 to 135 °C. In the case of `Cn1c(C(F)(F)F)cc(=O)n(-c2ccc3snc(C(=O)NS(C)(=O)=O)c3c2)c1=O`, the melting point lay in the range of 241 to 243 °C. Compound `CC[C@H](COC)n1cc(Br)nc(N2CCc3cc(OC)c(F)c(Cl)c32)c1=O` displayed a melting point of 150 to 152 °C.

With `CN(C)CC1CCc2cc(OCc3ccc(NC(=O)c4cc5ccccc5s4)cc3)ccc2C1` (stereo unspecified), the melting point lay in the range of 165 to 169 °C. In turn, `CC(=O)Nc1cc(CCl)c(I)cn1` had a melting point of 173 to 174 °C. Take `CN1C(=O)C2(COc3cc4c(cc32)OCCO4)c2c(Oc3ccc(C(F)(F)F)cc3)cccc21` (stereo unspecified): the melting point lay within 198 to 201 °C. As for `CCOC(=O)c1cnc(Oc2cc(OCCOC)ccc2CCCOC(=O)NCC2CC2)c(Cl)c1`, the melting point lay in the range of 94.6 to 94.8 °C. `COc1ccc(OCC2(CI)CC2)cc1` displayed a melting point of 53 to 54 °C. `CCCCc1sc(C(N)=O)c2c1-c1c(cnn1C)CC2` displayed a melting point of 119 to 121 °C.

In the case of `CC1C(=O)N(c2ccc(Cc3ccccc3)cc2)C(=S)N1c1ccccc1` (stereo unspecified), the melting point was in the range of 123 to 125 °C.

`CCCCOc1ccccc1-c1nc(Cl)cc(OCCC(C)C)n1` registered a melting point of 47 to 50 °C. On to `COc1cc2c(cc1I)CCC2=O`, for which the melting point worked out at 140 °C.

Regarding `Cc1cn([C@H]2CC[C@H](CC(=O)O)C[C@@H]2NC(=O)OC(C)(C)C)c(=O)[nH]c1=O`, the melting point lay within 231 to 233 °C. `OCCOc1cc2ccccc2cc1OCCOc1ccccc1` had a melting point of 119 to 120 °C.

Compound `CN(C(=O)C(F)(F)F)c1ccc(C2=NC[C@@H](OC(=O)Nc3ccccc3)[C@H](c3ccccc3)O2)cc1` (racemic) registered a melting point of 160 °C. `O=C(CSCc1ccc(Cl)c(Cl)c1)NO` returned a melting point of 75 to 76 °C.

As to `CC(C)(C)c1ccc(C2(Cl)CN(C(c3ccccc3)c3ccccc3)C2)cc1`, the melting point is 145 °C.

`COc1ccc(-c2cc(-c3cccc(Br)n3)nc(-c3cccc(Br)n3)c2)cc1` displayed a melting point of 205 °C. In turn, `CCCn1cncc1CSc1nc2ccc([N+](=O)[O-])cc2[nH]1` yielded a melting point of 189 to 190 °C.

The compound `CC1SC(=O)NN=C1c1ccc2c(c1)C(=Cc1ccccc1[N+](=O)[O-])C(=O)N2` (stereo unspecified) gave a melting point of 258 °C. With `O=C(O)CCOc1cccc(CCNC(=O)C2Cc3ccccc3N2S(=O)(=O)c2ccc(-c3cccc(C(F)(F)F)c3)cc2)c1` (stereo unspecified), the melting point is 78 °C. Turning to `CC1(C)Oc2c(N)cccc2C1=O`, the melting point was 80 to 84 °C. Then `CCN(SN(C)C=Nc1ccc(C)cc1C)c1ccccc1`, with 52 to 53 °C; and `CCC(CC)n1nnc2cc(C(F)(F)F)cc([N+](=O)[O-])c21`, with 42 to 45 °C; and `Cc1c(Br)c2c(c(C)c1NC(=O)OC(C)(C)C)CC(C)(C)O2`, with 115 to 117 °C.

The compound `COc1cnccc1CCCOc1cccnc1Oc1ccccc1` came in with a melting point of 101 to 102 °C. Compound `C#CC(C)Oc1cc(Cc2cnc(N)nc2N)cc(OC)c1OC` (stereo unspecified) gave a melting point of 153 to 155 °C. Consider `O=C(O)c1ccc2c([N+](=O)[O-])cc3c(c2c1)C(CCl)CN3` (stereo unspecified), for which the melting point lay within 205 to 208 °C. On to `Cc1ccn2c(C)c(CCc3ccc4nc(NC(=N)N)oc4c3)nc2c1`, for which the melting point was 195 to 196 °C. As for `CC(C)(C)c1cc(NC(=O)Nc2ccc(Cl)c(Cl)c2)[nH]n1`, the melting point was in the range of 178 to 179 °C. The same measure for `CCOC(=O)C(C)(C)Oc1ccc(OCc2nc(-c3ccc(C(C)(C)C)cc3)no2)cc1`: 79 to 81 °C; for `CC(C)(C)OC(=O)N1CCc2cc(OCc3ccccc3)c(OCc3ccccc3)cc2C1Cc1ccc([N+](=O)[O-])cc1` (stereo unspecified): 150 to 152 °C; for `COC(=O)c1ccc(C(=N)NC(=O)OC(C)(C)C)cc1`: 157 °C.

`CCOC(=O)Cc1nn(CC(=O)Nc2cc(C(F)(F)F)ccc2Br)c(=O)c2ccccc12` displayed a melting point of 160 °C.

Turning to `COC(=O)c1ccc(C(F)(F)F)nc1S(N)(=O)=O`, the melting point was in the range of 187 to 188 °C. Compound `CN1CCN(c2cccc3ccc(Nc4ncccc4NC(=O)c4ccccc4)cc23)CC1` showed a melting point of 205 to 207 °C. Take `CCN(CC)CCCNC(=O)Cn1ncc(-c2ccccn2)c1-c1ccccc1`: the melting point lay within 82 to 83 °C. `ClCCOc1ccc(C2=C(c3ccccc3)CCCc3cc(OC4CCCCO4)ccc32)cc1` (stereo unspecified) returned a melting point of 153 to 155 °C. Take `Nc1nc2[nH]c(CCCc3csc(C(=O)O)c3)cc2c(=O)[nH]1`: the melting point lay within 181 to 182 °C. Compound `CC(C)OC(=NC(=O)c1ccc(F)cc1)N1Cc2ccccc2-c2ccccc2C1` returned a melting point of 90 to 93 °C. On to `CC1(Cn2nc(-c3ccc(OC(F)(F)F)cc3)oc2=O)Cn2cc([N+](=O)[O-])nc2O1` (stereo unspecified), for which the melting point fell in the range of 146 to 148 °C.

For orientation: melting point means the temperature, or range, at which the solid turns liquid.
